Reference: PubChem BioAssay (NCI)
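Briefly, cells in 96-well plates were exposed to five compound concentrations for 48 h, and endpoints were estimated by linear interpolation. The concentration for 50% growth inhibition is given as GI50. The concentration for full growth arrest is given as TGI.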

Experiments:
Experiment in all cases: NCI-60 cell line screen, 48 h
786-0 renal = tested on: 786-0 renal
A549 NSCLC = tested on: A549 NSCLC
ACHN renal = tested on: ACHN renal
BT-549 breast = tested on: BT-549 breast
CCRF-CEM leukemia = tested on: CCRF-CEM leukemia
DU-145 prostate = tested on: DU-145 prostate
EKVX NSCLC = tested on: EKVX NSCLC
HCT-116 colon = tested on: HCT-116 colon
HCT-15 colon = tested on: HCT-15 colon
HL-60(TB) leukemia = tested on: HL-60(TB) leukemia
HOP-62 NSCLC = tested on: HOP-62 NSCLC
HT29 colon = tested on: HT29 colon
IGROV1 ovarian = tested on: IGROV1 ovarian
K-562 leukemia = tested on: K-562 leukemia
LOX IMVI melanoma = tested on: LOX IMVI melanoma
M14 melanoma = tested on: M14 melanoma
MALME-3M melanoma = tested on: MALME-3M melanoma
MCF7 breast = tested on: MCF7 breast
NCI-H460 lung = tested on: NCI-H460 lung
NCI/ADR-RES ovarian = tested on: NCI/ADR-RES ovarian
OVCAR-3 ovarian = tested on: OVCAR-3 ovarian
OVCAR-8 ovarian = tested on: OVCAR-8 ovarian
PC-3 prostate = tested on: PC-3 prostate
RPMI-8226 leukemia = tested on: RPMI-8226 leukemia
RXF 393 renal = tested on: RXF 393 renal
SF-268 CNS = tested on: SF-268 CNS
SF-539 CNS = tested on: SF-539 CNS
SK-MEL-2 melanoma = tested on: SK-MEL-2 melanoma
SK-MEL-28 melanoma = tested on: SK-MEL-28 melanoma
SN12C renal = tested on: SN12C renal
SNB-19 CNS = tested on: SNB-19 CNS
SNB-75 CNS = tested on: SNB-75 CNS
SW-620 colon = tested on: SW-620 colon
TK-10 renal = tested on: TK-10 renal
U251 CNS = tested on: U251 CNS
UACC-62 melanoma = tested on: UACC-62 melanoma
UO-31 renal = tested on: UO-31 renal
CAKI-1 renal = tested on: CAKI-1 renal
COLO 205 colon = tested on: COLO 205 colon
HCC-2998 colon = tested on: HCC-2998 colon
HOP-92 NSCLC = tested on: HOP-92 NSCLC
KM12 colon = tested on: KM12 colon
MDA-MB-231 breast = tested on: MDA-MB-231 breast
MDA-MB-435 = tested on: MDA-MB-435
MOLT-4 leukemia = tested on: MOLT-4 leukemia
NCI-H226 lung = tested on: NCI-H226 lung
NCI-H23 lung = tested on: NCI-H23 lung
NCI-H522 lung = tested on: NCI-H522 lung
OVCAR-4 ovarian = tested on: OVCAR-4 ovarian
OVCAR-5 ovarian = tested on: OVCAR-5 ovarian
SF-295 CNS = tested on: SF-295 CNS
SK-MEL-5 melanoma = tested on: SK-MEL-5 melanoma
SR leukemia = tested on: SR leukemia
UACC-257 melanoma = tested on: UACC-257 melanoma
SK-OV-3 ovarian = tested on: SK-OV-3 ovarian

Compound: CCCC(=O)NC1CCc2cc(OC)c(OC)c(OC)c2-c2ccc(OC)c(=O)cc21 (stereo not given)
- TGI (786-0 renal): > 100 µM
- TGI (A549 NSCLC): > 100 µM
- TGI (ACHN renal): > 100 µM
- TGI (BT-549 breast): > 100 µM
- TGI (CCRF-CEM leukemia): > 100 µM
- TGI (DU-145 prostate): 0.0114 µM
- GI50 (EKVX NSCLC): > 100 µM
- TGI (EKVX NSCLC): > 100 µM
- TGI (HCT-116 colon): > 100 µM
- GI50 (HCT-15 colon): 0.011 µM
- TGI (HCT-15 colon): 25.5 µM
- TGI (HL-60(TB) leukemia): 0.158 µM
- TGI (HOP-62 NSCLC): > 100 µM
- TGI (HT29 colon): 0.125 µM
- TGI (IGROV1 ovarian): > 100 µM
- TGI (K-562 leukemia): > 100 µM
- TGI (LOX IMVI melanoma): > 100 µM
- GI50 (M14 melanoma): > 100 µM
- TGI (M14 melanoma): > 100 µM
- TGI (MALME-3M melanoma): > 100 µM
- TGI (MCF7 breast): > 100 µM
- TGI (NCI-H460 lung): > 100 µM
- GI50 (NCI/ADR-RES ovarian): 3.2 µM
- TGI (NCI/ADR-RES ovarian): > 100 µM
- TGI (OVCAR-3 ovarian): 0.211 µM
- TGI (OVCAR-8 ovarian): > 100 µM
- TGI (PC-3 prostate): > 100 µM
- TGI (RPMI-8226 leukemia): > 100 µM
- TGI (RXF 393 renal): 44.7 µM
- TGI (SF-268 CNS): > 100 µM
- TGI (SF-539 CNS): 0.00199 µM
- TGI (SK-MEL-2 melanoma): > 100 µM
- TGI (SK-MEL-28 melanoma): > 100 µM
- TGI (SN12C renal): > 100 µM
- TGI (SNB-19 CNS): > 100 µM
- TGI (SNB-75 CNS): > 100 µM
- TGI (SW-620 colon): > 100 µM
- TGI (TK-10 renal): > 100 µM
- TGI (U251 CNS): > 100 µM
- TGI (UACC-62 melanoma): > 100 µM
- GI50 (UO-31 renal): 0.138 µM
- TGI (UO-31 renal): 75.9 µM

Compound: Nc1cc(N2CCCC2)nc(=O)n1-c1ccccc1
- TGI (786-0 renal): > 100 µM
- TGI (A549 NSCLC): > 100 µM
- TGI (ACHN renal): > 100 µM
- TGI (BT-549 breast): > 100 µM
- TGI (CAKI-1 renal): > 100 µM
- TGI (CCRF-CEM leukemia): > 100 µM
- TGI (COLO 205 colon): > 100 µM
- TGI (DU-145 prostate): > 100 µM
- TGI (EKVX NSCLC): > 100 µM
- TGI (HCC-2998 colon): 75.6 µM
- TGI (HCT-116 colon): > 100 µM
- TGI (HCT-15 colon): > 100 µM
- TGI (HL-60(TB) leukemia): > 100 µM
- TGI (HOP-62 NSCLC): > 100 µM
- TGI (HOP-92 NSCLC): > 100 µM
- TGI (HT29 colon): > 100 µM
- TGI (IGROV1 ovarian): > 100 µM
- TGI (K-562 leukemia): > 100 µM
- TGI (KM12 colon): > 100 µM
- TGI (LOX IMVI melanoma): > 100 µM
- TGI (M14 melanoma): > 100 µM
- TGI (MALME-3M melanoma): > 100 µM
- TGI (MCF7 breast): > 100 µM
- TGI (MDA-MB-231 breast): > 100 µM
- TGI (MDA-MB-435): > 100 µM
- TGI (MOLT-4 leukemia): > 100 µM
- TGI (NCI-H226 lung): > 100 µM
- TGI (NCI-H23 lung): > 100 µM
- TGI (NCI-H460 lung): > 100 µM
- TGI (NCI-H522 lung): > 100 µM
- TGI (NCI/ADR-RES ovarian): > 100 µM
- TGI (OVCAR-4 ovarian): > 100 µM
- TGI (OVCAR-5 ovarian): > 100 µM
- TGI (OVCAR-8 ovarian): > 100 µM
- TGI (PC-3 prostate): > 100 µM
- TGI (RPMI-8226 leukemia): > 100 µM
- TGI (SF-295 CNS): > 100 µM
- TGI (SF-539 CNS): > 100 µM
- TGI (SK-MEL-2 melanoma): > 100 µM
- TGI (SK-MEL-28 melanoma): > 100 µM
- TGI (SK-MEL-5 melanoma): > 100 µM
- TGI (SN12C renal): > 100 µM
- TGI (SNB-19 CNS): > 100 µM
- TGI (SNB-75 CNS): > 100 µM
- TGI (SR leukemia): > 100 µM
- TGI (SW-620 colon): > 100 µM
- TGI (TK-10 renal): > 100 µM
- TGI (U251 CNS): > 100 µM
- TGI (UACC-257 melanoma): > 100 µM

Compound: CC(C)=NNC=N/C(C#N)=C(\N)C#N
- TGI (786-0 renal): > 100 µM
- TGI (A549 NSCLC): > 100 µM
- TGI (ACHN renal): > 100 µM
- TGI (BT-549 breast): > 100 µM
- TGI (CAKI-1 renal): > 100 µM
- TGI (CCRF-CEM leukemia): > 100 µM
- TGI (COLO 205 colon): > 100 µM
- TGI (DU-145 prostate): > 100 µM
- TGI (EKVX NSCLC): > 100 µM
- TGI (HCC-2998 colon): 1.21 µM
- TGI (HCT-116 colon): > 100 µM
- TGI (HCT-15 colon): > 100 µM
- TGI (HL-60(TB) leukemia): > 100 µM
- TGI (HOP-62 NSCLC): > 100 µM
- TGI (HT29 colon): > 100 µM
- TGI (IGROV1 ovarian): > 100 µM
- TGI (K-562 leukemia): > 100 µM
- TGI (M14 melanoma): > 100 µM
- TGI (MALME-3M melanoma): > 100 µM
- TGI (MCF7 breast): > 100 µM
- TGI (MOLT-4 leukemia): > 100 µM
- TGI (NCI-H226 lung): > 100 µM
- TGI (NCI-H23 lung): > 100 µM
- TGI (NCI-H460 lung): > 100 µM
- TGI (NCI-H522 lung): > 100 µM
- TGI (NCI/ADR-RES ovarian): > 100 µM
- TGI (OVCAR-3 ovarian): > 100 µM
- TGI (OVCAR-4 ovarian): > 100 µM
- TGI (OVCAR-5 ovarian): > 100 µM
- TGI (OVCAR-8 ovarian): > 100 µM
- TGI (PC-3 prostate): > 100 µM
- TGI (RPMI-8226 leukemia): > 100 µM
- TGI (RXF 393 renal): > 100 µM
- TGI (SF-268 CNS): > 100 µM
- TGI (SF-295 CNS): > 100 µM
- TGI (SF-539 CNS): > 100 µM
- TGI (SK-MEL-2 melanoma): > 100 µM
- TGI (SK-MEL-28 melanoma): > 100 µM
- TGI (SK-MEL-5 melanoma): > 100 µM
- TGI (SK-OV-3 ovarian): > 100 µM
- TGI (SNB-19 CNS): > 100 µM
- TGI (SNB-75 CNS): > 100 µM
- TGI (SR leukemia): > 100 µM
- TGI (SW-620 colon): > 100 µM
- TGI (TK-10 renal): > 100 µM
- TGI (U251 CNS): > 100 µM
- TGI (UACC-257 melanoma): > 100 µM
- TGI (UACC-62 melanoma): > 100 µM
- TGI (UO-31 renal): > 100 µM
